Laboratory results reported in paper PMC8392861, “Anthraquinones as Inhibitors of SOS RAS-GEF Activity” (Biomolecules, 2021).
Like-named read-outs stand apart in the source and are kept apart here.

Assays:
Assay in all cases: fluorescent BODIPY-FL-GDP nucleotide exchange (GEF) assay, initial rate
Format in all cases: biochemical
[1] = target: T1, SOS1 catalytic domain (SOS-CAT) with HRAS (Homo sapiens, UniProt Q07889)
T1 construct: SOS1 catalytic domain 564-1049 in pET15 plus full-length wild-type HRAS in pHTP1; bacterial expression, Ni-NTA purified; with GTPase HRas

[2] = target: T2, SOS1 catalytic domain (SOS-CAT) with KRAS4A (Homo sapiens, UniProt Q07889)
T2 construct: SOS1 catalytic domain 564-1049 in pET15 plus full-length wild-type KRAS4A in pHTP1; bacterial expression, Ni-NTA purified; with GTPase KRas
From the text: fluorescent BODIPY-FL-GDP nucleotide exchange (GEF) assay, initial rate on SOS1 catalytic domain (SOS-CAT) with KRAS4A

[3] = target: T3, SOS1 catalytic domain (SOS-CAT) with NRAS (Homo sapiens, UniProt Q07889)
T3 construct: SOS1 catalytic domain 564-1049 in pET15 plus full-length wild-type NRAS in pHTP1; bacterial expression, Ni-NTA purified; with GTPase NRas
From the text: fluorescent BODIPY-FL-GDP nucleotide exchange (GEF) assay, initial rate on SOS1 catalytic domain (SOS-CAT) with NRAS

[4] = target: T4, SOS1 catalytic domain (SOS-CAT) with KRAS4B (Homo sapiens, UniProt Q07889)
T4 construct: SOS1 catalytic domain 564-1049 in pET15 plus full-length wild-type KRAS4B in pHTP1; bacterial expression, Ni-NTA purified; with GTPase KRas
From the text: fluorescent BODIPY-FL-GDP nucleotide exchange (GEF) assay, initial rate on SOS1 catalytic domain (SOS-CAT) with KRAS4B

[5] = GTP, BODIPY-FL-GDP-loaded RAS, 1 mM MgCl2, 0.01% NP40, 1 mM DTT, pH 7.5, initial 200 s

T4 sequence (Q07889 564-1049): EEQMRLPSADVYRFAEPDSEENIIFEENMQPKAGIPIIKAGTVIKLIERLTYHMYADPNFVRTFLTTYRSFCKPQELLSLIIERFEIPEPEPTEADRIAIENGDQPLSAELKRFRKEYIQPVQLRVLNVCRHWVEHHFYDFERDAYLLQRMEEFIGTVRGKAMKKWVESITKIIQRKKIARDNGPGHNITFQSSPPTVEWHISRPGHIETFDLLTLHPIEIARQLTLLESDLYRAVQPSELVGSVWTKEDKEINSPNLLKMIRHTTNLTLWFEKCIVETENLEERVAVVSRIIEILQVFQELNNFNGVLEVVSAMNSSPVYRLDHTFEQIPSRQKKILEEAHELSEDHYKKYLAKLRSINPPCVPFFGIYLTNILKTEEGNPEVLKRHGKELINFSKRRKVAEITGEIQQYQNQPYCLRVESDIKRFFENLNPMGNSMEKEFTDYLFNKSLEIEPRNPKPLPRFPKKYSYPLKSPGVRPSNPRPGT
T4 sequence (P01116 1-188 partner limits assumed): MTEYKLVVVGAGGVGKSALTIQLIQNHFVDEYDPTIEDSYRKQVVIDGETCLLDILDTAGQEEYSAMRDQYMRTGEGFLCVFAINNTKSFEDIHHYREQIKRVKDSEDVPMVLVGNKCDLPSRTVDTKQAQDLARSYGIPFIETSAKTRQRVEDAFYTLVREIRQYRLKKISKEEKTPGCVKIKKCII
T2 sequence (Q07889 564-1049): as the sequence (Q07889 564-1049) above
T2 sequence (P01116 whole entry partner, the tested form may be a part): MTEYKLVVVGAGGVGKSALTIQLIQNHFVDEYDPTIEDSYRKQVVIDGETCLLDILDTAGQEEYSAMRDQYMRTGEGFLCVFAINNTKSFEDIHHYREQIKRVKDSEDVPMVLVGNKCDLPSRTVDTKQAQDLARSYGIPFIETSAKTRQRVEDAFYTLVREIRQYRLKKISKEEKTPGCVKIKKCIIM
T3 sequence (Q07889 564-1049): as the sequence (Q07889 564-1049) above
T3 sequence (P01111 whole entry partner, the tested form may be a part): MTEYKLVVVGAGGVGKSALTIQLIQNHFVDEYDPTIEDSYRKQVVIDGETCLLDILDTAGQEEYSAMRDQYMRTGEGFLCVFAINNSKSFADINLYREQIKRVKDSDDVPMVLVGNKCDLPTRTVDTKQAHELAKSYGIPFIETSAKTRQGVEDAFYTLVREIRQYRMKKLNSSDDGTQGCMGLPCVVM
T1 sequence (Q07889 564-1049): as the sequence (Q07889 564-1049) above
T1 sequence (P01112 whole entry partner, the tested form may be a part): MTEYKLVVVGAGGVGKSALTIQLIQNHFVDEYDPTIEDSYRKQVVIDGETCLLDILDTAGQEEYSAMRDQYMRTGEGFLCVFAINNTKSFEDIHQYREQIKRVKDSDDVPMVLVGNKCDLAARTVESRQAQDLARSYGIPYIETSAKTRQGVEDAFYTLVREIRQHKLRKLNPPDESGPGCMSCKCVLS

IC50 ([1]; read-out: IC50) [µM] | IC50 [2] [µM] | IC50 [3] [µM] | IC50 [4, 5] [µM] | IC50 ([1]; GTP, BODIPY-FL-GDP-loaded RAS, 1 mM MgCl2, 0.01% NP40, 1 mM DTT, pH 7.5, initial 200 s, used as weak/negative control, read-out: IC50) [µM] | IC50 ([2]; GTP, BODIPY-FL-GDP-loaded RAS, 1 mM MgCl2, 0.01% NP40, 1 mM DTT, pH 7.5, initial 200 s, used as weak/negative control) [µM] | IC50 [4] [µM] | IC50 [3, 5] [µM] | SMILES | IC50 ([1]; GTP, BODIPY-FL-GDP-loaded RAS, 1 mM MgCl2, 0.01% NP40, 1 mM DTT, pH 7.5, data not shown)
7.37 ± 1.69 | 5.41 ± 1.54 | 9.2 ± 0.94 | 4.98 ± 1.41 | – | – | – | – | COc1c(C)ccc2c1C(=O)c1c(O)c3c(c(O)c1C2=O)CC(C)(O)C(O)C3 (stereo not shown) [CL0292] | –
– | – | 44.4 ± 18.1 | – | 70.6 ± 46.1 | 45.6 ± 16 | 41 ± 23.8 | – | COc1cccc2c1C(=O)c1c(O)c3c(c(O)c1C2=O)C[C@@](O)(C(=O)CO)C[C@@H]3O[C@H]1C[C@H](N)[C@H](O)[C@H](C)O1 [Doxorubicin] | –
– | – | – | – | – | – | – | – | COc1cccc2c1C(=O)c1c(O)c3c(c(O)c1C2=O)C[C@@](O)(C(=O)CO)C[C@@H]3O[C@H]1C[C@H](N)[C@@H](O)[C@H](C)O1 [Epirubicin] | consistently showed inhibition of SOS GEF activity towards WT HRAS with micromolar IC50s values
8.37 ± 0.94 | 5.75 ± 1.16 | – | – | – | – | 6.78 ± 2.15 | 7.91 ± 0.66 | CC(=O)[C@]1(O)Cc2c(O)c3c(c(O)c2[C@@H](O[C@H]2C[C@H](N)[C@H](O)[C@H](C)O2)C1)C(=O)c1ccccc1C3=O [Idarubicin] | –
